Read-outs that look alike come from different tables or passages of the source.
How the values were obtained:
[1] = test system: TNF-α secreted by synoviocyte; experiment: Content of TNF-α in culture supernatant of synoviocyte of RA model rats given test compound; format: in vivo; settings: rat RA model, dose 30 mg/kg.2d; normal control 0.38 ± 0.027, NaCl 0.74 ± 0.098
In short: (§1)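 RA model rats received test compound at 30 mg/kg.2d, with normal control and NaCl groups run in parallel. Synoviocytes were then cultured from the animals, and the culture supernatant was assayed for secreted cytokine or PGE2.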

[2] = test system: IL-1β secreted by synoviocyte; experiment: Content of IL-1β in culture supernatant of synoviocyte of RA model rats given test compound; format: in vivo; settings: rat RA model, dose 30 mg/kg.2d; normal control 0.16 ± 0.034, NaCl 0.49 ± 0.136
In short: as §1

[3] = test system: PGE2 secreted by synoviocyte; experiment: Content of PGE2 in culture supernatant of synoviocyte of RA model rats given test compound; format: in vivo; settings: rat RA model, dose 30 mg/kg.2d; normal control 8.34 ± 1.29, NaCl 32.44 ± 10.32
In short: as §1

[4] = test system: cancer stem cells; experiment: Survival rate of cancer stem cells after test compound is added (flow cytometry, Annexin V-FITC/PI, clinical specimen); format: cell-based, patient; settings: Homo sapiens, 18 h
In short: (§2)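 Patient specimens (e.g. AML, CD34+/CD38+ stem-cell marker) separated on Ficoll; mononuclear cells at 1×10^6/mL in serum-free IMDM treated 18 h with compound. Cells stained for stem-cell markers, then Annexin V-FITC/PI, and apoptosis measured by flow cytometry within one hour.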

[5] = test system: cancer cells; experiment: Survival rate of cancer cells after test compound is added (flow cytometry, Annexin V-FITC/PI, clinical specimen); format: cell-based, patient; settings: Homo sapiens, 18 h, read-out: Survival rate (%) All cells (Stem cells and ordinary cells)
In short: as §2

[6] = Head and neck squamous cell carcinomas

C=C1C(=O)O[C@@H]2[C@H]3C(C)=CC[C@@]34O[C@@]4(C)CC[C@@H]12 [Compound 50]
Content of TNF-α in culture supernatant of synoviocyte (x ± s) [1]: 0.52 ± 0.064 ng/mL | Content of IL-1β in culture supernatant of synoviocyte (x ± s) [2]: 0.34 ± 0.061 ng/mL | Content of PGE2 in culture supernatant of synoviocyte (x ± s) [3]: 19.83 ± 1.78 ng/mL | viability at 10 µM ([4]; AML): 45% | viability at 20 µM ([4]; AML): 36% | viability at 10 µM ([4]; Brain glioma): 63% | viability at 20 µM ([4]; Brain glioma): 47% | viability at 10 µM ([4]; Brain tumor): 62% | viability at 20 µM ([4]; Brain tumor): 54% | viability at 10 µM ([4]; Breast cancer): 64% | viability at 20 µM ([4]; Breast cancer): 52% | viability at 10 µM ([4]; CLL): 47% | viability at 20 µM ([4]; CLL): 36% | viability at 10 µM ([4]; CML): 57% | viability at 20 µM ([4]; CML): 46% | viability at 10 µM ([4]; Children hepatoblastoma): 42% | viability at 20 µM ([4]; Children hepatoblastoma): 34% | viability at 10 µM ([4]; Colon adenocarcinoma): 43% | viability at 20 µM ([4]; Colon adenocarcinoma): 35% | viability at 10 µM ([4]; Colorectal cancer): 64% | viability at 20 µM ([4]; Colorectal cancer): 55% | viability at 10 µM ([4]; Gastric cancer): 45% | viability at 20 µM ([4]; Gastric cancer): 37% | viability at 10 µM ([4]; Gastrointestinal tumor): 55% | viability at 20 µM ([4]; Gastrointestinal tumor): 44% | viability at 10 µM ([4]; Glioma): 62% | viability at 20 µM ([4]; Glioma): 45% | viability at 10 µM [4, 6]: 56% | viability at 20 µM [4, 6]: 47% | viability at 10 µM ([4]; Laryngeal cancer): 64% | viability at 20 µM ([4]; Laryngeal cancer): 53% | viability at 10 µM ([4]; Liver cancer): 53% | viability at 20 µM ([4]; Liver cancer): 46% | viability at 10 µM ([4]; Lung adenocarcinoma): 46% | viability at 20 µM ([4]; Lung adenocarcinoma): 36% | viability at 10 µM ([4]; Lung cancer): 43% | viability at 20 µM ([4]; Lung cancer): 33% | viability at 10 µM ([4]; Malignant melanoma): 64% | viability at 20 µM ([4]; Malignant melanoma): 54% | viability at 10 µM ([4]; Nasopharynx cancer): 44% | viability at 20 µM ([4]; Nasopharynx cancer): 37% | viability at 10 µM ([4]; Ovarian cancer): 62% | viability at 20 µM ([4]; Ovarian cancer): 55% | viability at 10 µM ([4]; Pancreatic cancer): 53% | viability at 20 µM ([4]; Pancreatic cancer): 43% | viability at 10 µM ([4]; Prostate cancer): 54% | viability at 20 µM ([4]; Prostate cancer): 41% | viability at 10 µM ([4]; Retinoblastoma): 54% | viability at 20 µM ([4]; Retinoblastoma): 44% | viability at 10 µM ([4]; Skin cancer): 57% | viability at 20 µM ([4]; Skin cancer): 43% | viability at 10 µM ([5]; AML): 57% | viability at 20 µM ([5]; AML): 47% | viability at 10 µM ([5]; Brain glioma): 74% | viability at 20 µM ([5]; Brain glioma): 58% | viability at 10 µM ([5]; Brain tumor): 72% | viability at 20 µM ([5]; Brain tumor): 63% | viability at 10 µM ([5]; Breast cancer): 75% | viability at 20 µM ([5]; Breast cancer): 65% | viability at 10 µM ([5]; CLL): 58% | viability at 20 µM ([5]; CLL): 47% | viability at 10 µM ([5]; CML): 64% | viability at 20 µM ([5]; CML): 58% | viability at 10 µM ([5]; Children hepatoblastoma): 55% | viability at 20 µM ([5]; Children hepatoblastoma): 47% | viability at 10 µM ([5]; Colon adenocarcinoma): 55% | viability at 20 µM ([5]; Colon adenocarcinoma): 49% | viability at 10 µM ([5]; Colorectal cancer): 76% | viability at 20 µM ([5]; Colorectal cancer): 66% | viability at 10 µM ([5]; Gastric cancer): 54% | viability at 20 µM ([5]; Gastric cancer): 48% | viability at 10 µM ([5]; Gastrointestinal tumor): 64% | viability at 20 µM ([5]; Gastrointestinal tumor): 53% | viability at 10 µM ([5]; Glioma): 74% | viability at 20 µM ([5]; Glioma): 56% | viability at 10 µM [5, 6]: 67% | viability at 20 µM [5, 6]: 58% | viability at 10 µM ([5]; Laryngeal cancer): 75% | viability at 20 µM ([5]; Laryngeal cancer): 64% | viability at 10 µM ([5]; Liver cancer): 66% | viability at 20 µM ([5]; Liver cancer): 54% | viability at 10 µM ([5]; Lung adenocarcinoma): 57% | viability at 20 µM ([5]; Lung adenocarcinoma): 47% | viability at 10 µM ([5]; Lung cancer): 54% | viability at 20 µM ([5]; Lung cancer): 47% | viability at 10 µM ([5]; Malignant melanoma): 82% | viability at 20 µM ([5]; Malignant melanoma): 66% | viability at 10 µM ([5]; Nasopharynx cancer): 54% | viability at 20 µM ([5]; Nasopharynx cancer): 48% | viability at 10 µM ([5]; Ovarian cancer): 77% | viability at 20 µM ([5]; Ovarian cancer): 67% | viability at 10 µM ([5]; Pancreatic cancer): 64% | viability at 20 µM ([5]; Pancreatic cancer): 49% | viability at 10 µM ([5]; Prostate cancer): 66% | viability at 20 µM ([5]; Prostate cancer): 54% | viability at 10 µM ([5]; Retinoblastoma): 65% | viability at 20 µM ([5]; Retinoblastoma): 53% | viability at 10 µM ([5]; Skin cancer): 66% | viability at 20 µM ([5]; Skin cancer): 58%

From patent US10463644B2, “Uses of sesquiterpene lactone compounds and their derivatives in drugs preparation” (ACCENDATECH, priority 2013, dated 2019)
